Holding throughout (type): cell-based
For series [1], the system named is bone marrow-derived human mesenchymal stem cells (hMSCs). To be noted: for hMSC viability compared with DMSO control groups: 0.2 M trehalose. As for the experimental part:
Experiments were performed using bone marrow-derived human mesenchymal stem cells (hMSCs) from various commercial sources Human Bone-Marrow Derived Mesenchymal Stem/Stromal Cells (hBM-MSCs) were isolated from normal healthy adult donors (purchased from a commercial source (such as Rooster-Bio) along with the appropriate growth media). Cells were grown according to the manufacturer's instructions).
Prior to the development of the methodology of the present disclosure, the inventors of the instant application previously assessed a nanotechnology for intracellular trehalose delivery developed by Professor Xiaoming He, University of Maryland (Zhang et al., Cold-Responsive Nanoparticle Enables Intracellular Delivery and Rapid Release of Trehalose for Organic-Solvent-Free Cryopreservation, Nano Lett. 2019, 19, 9051-9061; Rao et al., Nanoparticle-Mediated Intracellular Delivery Enables Cryopreservation of Human Adipose-Derived Stem Cells Using Trehalose as the Sole Cryoprotectant, ACS Appl Mater Interfaces, 2015, 7(8), 5017-5028), that they had shown promoted cryopreservation of adipose tissue derived hMSCs, for bone marrow-derived MSCs. Unfortunately, the trehalose nanotechnology failed during these studies, probably due to instability of the trehalose nanoparticles during storage and transport from the University of Maryland to Charleston, S.C. […] Encouraged by these unanticipated results, the range of exogenous trehalose employed was expanded to 0.2-0.8M and compared −1, −5 and −15° C./minute cooling rates.
In the preliminary experiments, the DMSO controls were clearly the best at the 1° C./minute cooling rate (65.3±2.7% of untreated controls), however, the best overall outcome was the 0.2M trehalose group at the −15° C./minute cooling rate (78.9±3.5% of untreated controls).

The test system of series [2] is Pan T-cells. Briefly: Pan T-cell metabolic activity after cryopreservation (resazurin dye). To be noted: −15° C./minute. As for the experimental part:
(§1) Experiments were performed to assess 0.2-0.8M concentrations of extracellular trehalose combined with several concentrations of 0-5% DMSO and compared with the positive control, Cryostor-5, that contains 5% DMSO.
(§2) Pan T-cells were grown and expanded. The T-cells were then harvested and counted. Approximately 10×10^6 cells were used for each sample. Cells were resuspended in the various combinations of DMSO and trehalose in 1 mL and allowed to equilibrate on ice for 20 minutes. Samples were cooled in a CRF at −15° C./minute to −80° C. then moved to liquid nitrogen vapor phase storage for approximately 10 days. After storage, samples were thawed rapidly in a 37° C. water bath, transferred to a 15 mL centrifuge tube and diluted with 10 mL culture medium. An aliquot was taken for cell counting. […] Cells were allowed to recover for 60 minutes in a 37° C. incubator before viability was measured using resazurin dye (300 μl). The cells were left for 3 hours at 37° C. before the plate was read using a fluorescent microplate reader at an excitation wavelength of 544 nm and an emission wavelength of 590 nm. […]
(§3) In FIGS. 3A and 3B, cell survival after cryopreservation at −15° C./minute using combinations of DMSO and trehalose. […] Cell counts, live and dead, (A) as well as metabolic activity (B) was measured. […]
A general note: Resazurin is reduced to fluorescent resorufin, in cell work by metabolically active cells.

Series [3] concerns Pan T-cells. Put plainly: Pan T-cell survival after cryopreservation, live and dead cell counts (trypan blue). Particulars: trehalose alone, no DMSO; −15° C./minute. As for the experimental part: as §1, §2, §3

Where two headings read alike, the source gives them in different places.

For `C[S+](C)[O-]` [DMSO, dimethyl sulfoxide, reference compound], the “hMSC viability after cryopreservation” value in series [1] is 65.3±2.7 % of untreated controls.
For `OC[C@H]1O[C@H](O[C@H]2O[C@H](CO)[C@@H](O)[C@H](O)[C@H]2O)[C@H](O)[C@@H](O)[C@@H]1O` [trehalose], in series [1], the “hMSC viability after cryopreservation” value was 78.9±3.5 % of untreated controls. Also, the “hMSC viability compared with DMSO control groups” value in series [1] (−5° C./minute cooling rate) and in series [1] (−15° C./minute cooling rate) was “same or higher viability than the DMSO control groups” each time. The “MSC survival of cryopreservation” value in series [1] (trehalose present only extracellularly (used as negative control)) is “survived cryopreservation quite well”. Moreover, the “cell metabolic activity, difference from control Cryostor-5” value in the series on Pan T-cells [2] (0% DMSO with 0.2M trehalose, p>0.05) is “significant difference”; in the series on Pan T-cells [2] (0% DMSO, all trehalose groups except 0.2M), “no statistically significant differences”. In the series with Pan T-cells [3], the “protection during cryopreservation compared with control Cryostor-5” value is on record as “adequate protection similar to the control”.
